According to US9910031B2, “Compositions and methods for modulating c-Rel-dependent cytokine production” (Synta Pharmaceuticals Corporation, priority 2003, dated 2018):

Columns and labels:
PU-1 = experiment: Western blot of PU-1 in THP-1 nuclear extracts (Ets-2 DNA element beads); assay type: cell-based, human
Text: Of the transcription factors that have been analyzed, two factors, ICSBP and c-Rel, seem to be affected by Compound 1/Compound 2 treatment. ICSBP binds indirectly to the Ets-2 site. The primary NFκB trans-activator for IL-12 is the c-Rel/p50 heterodimer. Other dimers (p65/p50 and p50/p50) either lack activity or have inhibitory functions. Thus, c-Rel plays a role in IL-12 transcription as a result of both activation through NFκB and its interaction with ICSBP. […] The membranes were blocked with 5% milk in TBST buffer and then incubated with anti-c-Rel, anti-p65, anti-p50, anti-ICSBP or anti-PU-1 antibody (all the antibodies were purchased from Santa Cruz) at a dilution of 1:500 for 1 h at room temperature or overnight at 4° C. The membranes were washed and incubated with Horseradish Peroxidase-conjugated anti-rabbit IgG or anti-mouse IgG (Amersham, England) at a dilution of 1:2000 at room temperature for 1 h.
The transcription factor ICSBP binds to the Ets-2 element indirectly through binding to PU-1. Nuclear extracts were bound to Ets-2 DNA element beads, the beads isolated to separate bound from free protein, and the proteins analyzed on Western blots using antibodies to either ICSBP or PU-1. […] Eluted materials were separated by 10% SDS-PAGE and detected by immunoblot analysis using anti-ICSBP or anti-PU-1 antibody.

p65 = experiment: ELISA based transcriptional factor-DNA binding activity assay, THP-1 nuclear extracts, p65; assay type: cell-based, human; conditions: IFN-γ/LPS, 500 nm, 3 hrs
Protocol: Nuclear extracts were prepared from IFN-γ-primed THP-1 cells that had been treated with or without SAC and incubated in the presence or absence of 1 μM Compound 1 or 10 mM ASA. Isolation of nuclear extracts was accomplished by first suspending THP-1 cells in 20 volumes of buffer A containing 10 mM KCl, 10 mM HEPES (pH 7.9), 1 mM MgCl2, 1 mM dithiothreitol (DTT), 0.1% Nonidet p40 (NP-40), and 0.5 mM phenylmethylsulfonyl fluoride (PMSF) and then homogenizing and centrifuging at 10,000 rpm at 4° C. for 5 min. Nuclear pellets were then suspended in buffer C containing 400 mM NaCl, 20 mM HEPES pH 7.9), 15 mM MgCl2, 0.2 mM EDTA, 1 mM DTT, 25% glycerol, 1 mM PMSF, and 10 μg of leupeptin, 20 μg of pepstatin, and 10 μg of antipain per ml, incubated for 30 min at 4° C., and centrifuge at 14,000 rpm for […]. The supernatants were dialyzed against buffer D containing 100 mM NaCl, 20 mM HEPES (pH 7.9), 20% glycerol, 1 mM PMSF, and 1 mM DTT.
To understand the action of Compound 2 in NF-κB binding, several NF-κB family members, p50, c-Rel and p65 were investigated using an ELISA based transcriptional factor-DNA binding activity assay system. […]

IκBα = experiment: Inducible degradation of IκBα, Western blot and FACS analysis; assay type: cell-based, human; conditions: THP-1 and RAW267.4 cells, IFN-γ/LPS or IFN-γ/SAC, 500 nM, 30 min and 2 hrs
Protocol: IκB degradation is one of the steps in the signaling pathway of NFκB dependent genes. The activity of Compound 2 in inducible degradation of IκBα □ and IκBβ was investigated in THP-1 cells using Western blot and FACS analysis. […] Similar results were observed from the Compound 2 pre-treatment samples in which Compound 2 was added […] before stimulation.

IL-12 p70 = IL-12 p70 production in human monocyte-derived dendritic cells; assay type: cell-based; conditions: IFN-γ primed then SAC or LPS
Protocol: Although c-Rel has a role in the expression of both p35 and p40 in monocytes and macrophages as well as p35 in dendritic cells (DCs), p40 expression in dendritic cells is c-Rel-independent (Grumont et al. J. Exp. Med. 2001; 194:1021-1031). If Compound 2 is acting through c-Rel, this drug should inhibit both p40 and p70 production by PBMCs. However, Compound 2 should inhibit the production of p70 (through inhibition of p35) in DCs, but should not inhibit p40 in DCs. This was tested by generating monocyte-derived dendritic cells according to the following method. Human PBMC at 1×10^7 cells/ml were suspended in serum-free DMEM and incubated for 2 hrs at 37° C. under 5% CO2. The non-adherent cells then were removed by washing with PBS. The adherent cells were cultured in RPMI-1640 medium containing rhIL-4 (100 U/ml) and rhGM-CSF (1000 U/ml) for 6-7 days. The half volume fresh media and full-volume fresh cytokines were added every other day. The cells were then primed with IFN-γ (100 U/ml) and followed by 0.01% SAC or 1 μg/ml LPS, in the presence of different concentrations of Compound 2 or other compounds. The test compounds were prepared in DMSO and the final DMSO concentration was adjusted to 0.25% in all cultures, including the compound-free control. Cell-free supernatants were taken 18 h later for the measurement of cytokines.

Row | SMILES | levels of PU-1 (FIG. 6) (PU-1) | binding activity of p65 (p65) | amount of IκBα in the cytoplasm, treated vs untreated (IκBα) | p70 production in human DCs (IL-12 p70)
1 | C(=NNc1nc(OCCc2ccccn2)nc(N2CCOCC2)n1)c1c[nH]c2ccccc12 [Compound 1, N-(1H-indol-3-ylmethylene)-N′-[4-morpholin-4-yl-6-(2-pyridin-2-yl-ethoxy)-[1,3,5]triazin-2-yl]-hydrazine] | unaffected |  |  | 
2 | Cc1cccc(C=NNc2cc(N3CCOCC3)nc(OCCc3ccccn3)n2)c1 [Compound 2, N-(3-methyl-benzylidene)-N′-[6-morpholin-4-yl-2-(2-pyridin-2-yl-ethoxy)-pyrimidin-4-yl]-hydrazine] |  | increased binding activity | no significant difference | inhibit
